Measurements published in article PMC6304418, “A Novel Compound Targeting Protease Receptor 1 Activators for the Treatment of Glioblastoma” (Frontiers in Neurology, 2018).
“Also recorded” adds a separate entry of the source. Where a SMILES comes first, the peptide text is derived from it. The star is where a group is joined. Tos = Cc1ccc(S(=O)(=O)*)cc1; CH2Cl = ClC*

Key:
CNS-1 glioma cells = assay: CNS-1 glioma cell proliferation (XTT); format: cell-based, rat; conditions: SIXAC 1 μM, 72 h, FCS-free medium, p < 0.03
Experimental: (§1) CNS-1, C6, and U87 rat and human glioma cells were grown in Dulbecco's modified Eagle's medium (DMEM; Bet Haemek, Biological Industries, Israel) supplemented with 10% fetal bovine serum (Bet Haemek, Biological Industries, Israel) and 1% penicillin and streptomycin in a 5% CO2-humidified atmosphere.
(§2) Cell proliferation was evaluated using a 2.3-Bis-(2-methoxy-4-nitro-5-sulfophenyl)-2H-tetrazolium-5-carboxyanilide salt (XTT)-based cell proliferation assay kit (Bet Haemek, Biological Industries, Israel). U87 cells were seeded in 96-well plates (5 × 10^3 cells/well) and incubated for 24 h. The medium was then removed, the tested molecules (10^−13-10^−4 M final concentration) were added in FCS-free medium and introduced to the cells for 72 h. After choosing SIXAC as the leading molecule, it was tested in a similar way in CNS-1 cells (SIXAC 1 μM final concentration). XTT solution (50 μl) was added to each well and incubated for 3 h at 37°C. The optical density (OD) of each well was recorded at 450 and 630 nm in a microplate reader (Infinite M200, Tecan, Durham, NC, USA). Cell viability was expressed as the percentage (ODtest–ODblank)/(ODcontrol–ODblank), where ODtest is the optical density of cells exposed to SIXAC treatment, ODcontrol is the optical density of the control sample, and ODblank is the optical density of wells without glioma cells.

[1] = test system: thrombin mediated PAR1 activation (pERK/ERK) in CNS-1 cells; assay: ERK activation (pERK/ERK, Western blot) in CNS-1 cells; format: cell-based, rat; conditions: thrombin 1 U/ml + SIXAC 100 nM, 10 min; n = 3; thrombin alone 2.09 ± 0.28, p < 0.03
Experimental: Cells were seeded (1 × 10^6 cells/75 cm^2 flask) and incubated for 24 h. Then the medium was replaced by FCS-free medium for another 24 h. The cells were treated for 10 min with thrombin (1 U/ml), SIXAC (100 nM), a combination of thrombin and SIXAC or a FCS-free medium which was used as a control (n = 3 for each treatment). The cells were washed and lysed in RIPA buffer (containing in mM: 50 TRIS HCl pH 8, 150 NaCl, 1% NP-40, 0.5% sodium deoxycholate, and 0.1% SDS), a protease inhibitor cocktail (Merck Millipore 539134, 1:100), 0.1 mM sodium orthovanadate and 2 mM PMSF. The cells were scraped, collected and centrifuged (16,000g × 20 min) at 4°C. The supernatants were collected, and protein concentration was determined by means of a bicinchoninic acid (BCA) assay. Each sample (20 μg) was separated by SDS-polyacrylamide gel electrophoresis. The proteins were transferred onto nitrocellulose membranes. Membranes were incubated with mouse anti-phosphorylated Extracellular signal-Regulated Kinase (pERK) antibody (1:10,000, M8159, Sigma), for 1.5 h at room temperature (RT) and washed with Tris-buffered saline and 0.1% Tween 20 (TBST). Membranes were then incubated at RT with horseradish peroxidase-conjugated goat anti-mouse antibody (1:10,000, Jackson Immunoresearch Laboratories). […] Protein bands were detected by a peroxidase-based enhanced chemiluminescence (ECL) method. […]

U87 glioma cells = assay: U87 glioma cell proliferation (XTT); format: cell-based, human; conditions: 72 h
Experimental: as §1, §2

glioma cells (CNS-1) = assay: Wound healing (wound-closure) assay; format: cell-based, rat; conditions: SIXAC 1 μM, 4 h, FCS-free medium; control 10.14 ± 0.67%; p = 0.02
Experimental: The effect of SIXAC on the coordinated movement of the glioma cells was evaluated using a wound healing assay. The cells were seeded in 24-well plates at a density of 5 × 10^4cells/well. Cells were cultures in FCS-free medium for 24 h. A wound was established by scraping using 10 μl pipette tip. Cells were washed twice with warm PBS and fresh FCS-free medium containing 1 μM SIXAC was added. Image acquisition of wound gap closure (%) was carried out following 4 h of incubation using a Nikon Eclipse microscope. Images were analyzed using Fiji software ([37]).

[2] = test system: human normal pooled citrated plasma; assay: Coagulation in plasma (PT, aPTT, TT)
Experimental: HemosIL normal control (Instrumentation Laboratory), was used as human normal pooled citrated plasma from healthy donors. The lyophilized human plasma containing buffer, stabilizers and preservatives, was reconstituted using standard laboratory methods. The plasma was exposed in-vitro to indicated concentrations of SIXAC for 10 min. Next, prothrombin time (PT), activated partial thromboplastin time (aPTT) and thrombin time (TT) were measured. All tests were carried out with an ACLTOP® 500 autoanalyzerat in the Sheba medical center (Israel) MegaLab according to standard operating procedures (SOP). The results represent an average of 5 measures.

`Cc1ccc(S(=O)(=O)N[C@@H](C)C(=O)N[C@H](C(=O)N[C@@H](CC(C)C)C(=O)N[C@@H](CC(=O)O)C(=O)N2CCC[C@H]2C(=O)N[C@@H](CCCNC(=N)N)C(=O)CCl)[C@@H](C)O)cc1` [SIXAC] (Tos-ATLDPR-CH2Cl) was tested, and the “CNS-1 cell proliferation rate” value (CNS-1 glioma cells) was “significantly decrease proliferation rate (p < 0.03); also recorded: significantly decrease the CNS-1 cell proliferation rate”, the “pERK/ERK ratio, thrombin with SIXAC” value [1] was 0.99 ± 0.21 and the “U87 proliferation rate ("inhibit proliferation at a rate of")” value (U87 glioma cells; 10^−5M, FCS-free medium, mean ± SEM, 3AACK vs. 6AACK p < 0.035) was 0.2 ± 0.34. For the same compound, the “U87 proliferation inhibition, ranking among the molecules” value (U87 glioma cells; 10^−13-10^−4 M, Figure 1D) was “found to inhibit the U87 proliferation rate the most”, the wound-closure percentage (glioma cells (CNS-1)) was 7.27 ± 0.68% and the “margin of coagulation-affecting concentration over IC50 for thrombin inhibition” value ([2]; 10^−4M vs. IC50 for thrombin inhibition) was “at least 4.5 orders of magnitude”. For the same compound, the “concentration at which coagulation tests (PT, aPTT, TT) are affected” value ([2]; human plasma exposed 10 min, affected only at this concentration, average of 5 measures) was 10^−4 M and the “effect on PT, aPTT and TT (in words)” value ([2]; human plasma exposed 10 min, concentrations equivalent to those used to treat animals, average of 5 measures) was “no clinical significant effects; also recorded: The effect was minimal for the therapeutic dosages used in the experiment”.
